We go through 37 molecules from ChEMBL document CHEMBL1144281, “Inhibitors of type I MetAPs containing pyridine-2-carboxylic acid thiazol-2-ylamide. Part 2: SAR studies on the pyridine ring 3-substituent” (Bioorg Med Chem Lett, 2005).

The structures appear in SMILES notation.

The nature of assay [1]: Inhibitory concentration against Methionine aminopeptidase-1 (ScMetAP1). Details: species or system Saccharomyces cerevisiae.
Assay [2] is described as follows: Inhibitory concentration against Methionine aminopeptidase-1 (EcMetAP1). Details: species or system Escherichia coli.

Consider `O=C(CN1CCOCC1)Nc1cccnc1C(=O)Nc1nccs1`, for which the IC50 in assay [1] was 0.51 µM; in assay [2], 0.059 µM.
For `O=C(CN1CCCCC1)Nc1cccnc1C(=O)Nc1nccs1`, in that order: 0.19 µM and 0.053 µM.
The matching figures for `C=CC(=O)Nc1cccnc1C(=O)Nc1nccs1`: 0.62 µM and above 100 µM.
For `O=C(CN1CCCC1)Nc1cccnc1C(=O)Nc1nccs1`, the values for the IC50 in assay [1] and in assay [2] were 0.15 µM and 0.09 µM, respectively.
For `O=C(CC1CCCC1)Nc1cccnc1C(=O)Nc1nccs1`, in that order: 6.72 µM and 0.79 µM.
For `CC1(C)OC1CC(=O)Nc1cccnc1C(=O)Nc1nccs1` (centres undefined), in that order: 3.37 µM and 0.7 µM.
The matching figures for `O=C(CN(O)c1ccccc1)Nc1cccnc1C(=O)Nc1nccs1`: 0.23 µM and 0.057 µM.
As to `CC(C)(C)OC(=O)NCC(=O)Nc1cccnc1C(=O)Nc1nccs1`, the IC50 in assay [1] amounted to 0.38 µM; in assay [2], 0.049 µM.
On to `C=CCCC(=O)Nc1cccnc1C(=O)Nc1nccs1`, for which the figures for the IC50 in assay [1] and in assay [2] were 12.2 µM and 0.51 µM, respectively.
The matching figures for `O=C(O)CCC(=O)Nc1cccnc1C(=O)Nc1nccs1`: 2.27 µM and 0.14 µM.
For `O=C(Nc1cccnc1C(=O)Nc1nccs1)c1cccnc1`, in that order: 0.33 µM and 0.06 µM.
For `CN(C)CC(=O)Nc1cccnc1C(=O)Nc1nccs1`, in that order: 0.42 µM and 0.12 µM.
With `CCOC(=O)C(=O)Nc1cccnc1C(=O)Nc1nccs1`, the results for the IC50 in assay [1] and in assay [2] were 0.77 µM and 0.05 µM, respectively.
For `O=C(Nc1nccs1)c1ncccc1NC(=O)C1CCC1`, in that order: above 100 µM and above 100 µM.
The matching figures for `O=C(Nc1nccs1)c1ncccc1NC(=O)C1CCCC1`: 2.58 µM and 0.35 µM.
On to `O=C(O)CC(=O)Nc1cccnc1C(=O)Nc1nccs1`, for which the results for the IC50 in assay [1] and in assay [2] were 1.52 µM and 0.14 µM, respectively.
The matching figures for `O=C(Nc1nccs1)c1ncccc1NC(=O)C1CC1`: 2.56 µM and 0.13 µM.
For `O=C(Nc1nccs1)c1ncccc1NC(=O)C1CC=CCC1` (centres undefined), in that order: 15.1 µM and 0.81 µM.
For `O=C(CC1=CCCC1)Nc1cccnc1C(=O)Nc1nccs1`, in that order: 5.07 µM and 0.19 µM.
On to `CC(C)=CC(=O)Nc1cccnc1C(=O)Nc1nccs1`, for which the IC50 in assay [1] is 0.77 µM; in assay [2], 0.22 µM.
For `CC(C)=CCC(=O)Nc1cccnc1C(=O)Nc1nccs1`, in that order: 0.14 µM and 0.24 µM.
As for `O=C(O)c1ccccc1C(=O)Nc1cccnc1C(=O)Nc1nccs1`, the IC50 was 2.27 µM in assay [1] and 0.33 µM in assay [2].
The matching figures for `O=C(Nc1cccnc1C(=O)Nc1nccs1)C1=CCCCC1`: 21.9 µM and 0.97 µM.
Turning to `O=C(CC1=CCCCC1)Nc1cccnc1C(=O)Nc1nccs1`, the figures for the IC50 in assay [1] and in assay [2] were 8.91 µM and 0.12 µM, respectively.
For `O=C(O)C(=O)Nc1cccnc1C(=O)Nc1nccs1`, in that order: above 100 µM and 0.62 µM.
The matching figures for `C/C=C/C(=O)Nc1cccnc1C(=O)Nc1nccs1`: 0.82 µM and above 100 µM.
With `CCOC(=O)CC(=O)Nc1cccnc1C(=O)Nc1nccs1`, the IC50 in assay [1] came out at 0.72 µM; in assay [2], 0.075 µM.
The matching figures for `CC1(C)OC1CCC(=O)Nc1cccnc1C(=O)Nc1nccs1` (centres undefined): 3.3 µM and 0.56 µM.
The matching figures for `O=C(Nc1cccnc1C(=O)Nc1nccs1)C1=CCCC1`: 5.17 µM and 0.36 µM.
The matching figures for `CCN(CC)CC(=O)Nc1cccnc1C(=O)Nc1nccs1`: 0.23 µM and 0.049 µM.
Turning to `CC(C)(C)OC(=O)NCCC(=O)Nc1cccnc1C(=O)Nc1nccs1`, the results for the IC50 in assay [1] and in assay [2] were 0.15 µM and 0.049 µM, respectively.
As for `NCC(=O)Nc1cccnc1C(=O)Nc1nccs1`, the IC50 in assay [1] turned out to be 0.21 µM; in assay [2], 0.092 µM.
For `NCCC(=O)Nc1cccnc1C(=O)Nc1nccs1`, in that order: 0.13 µM and 0.074 µM.
The matching figures for `CC(C)=CCCC(=O)Nc1cccnc1C(=O)Nc1nccs1`: 0.31 µM and 0.61 µM.
For the molecule `O=C(Nc1nccs1)c1ccccn1`, the figures for the IC50 in assay [1] and in assay [2] were 7 µM and 5 µM, respectively.
The matching figures for `C=CCC(=O)Nc1cccnc1C(=O)Nc1nccs1`: 0.38 µM and 0.13 µM.
The matching figures for `C=C(C)CC(=O)Nc1cccnc1C(=O)Nc1nccs1`: 4.67 µM and 0.15 µM.
